The results in this text go back to PMC5218480 (PLoS ONE, 2017).

The test deals with MV-4-11 cells. Kind of test: Gene expression microarray analysis (Affymetrix PrimeView) and GSEA. Type of test: cell-based, human. Particulars: MV-4-11 cells, 48 hours. On the set-up: RFU PODN (11730768_x_at) / Fold change /veh PODN (11730768_x_at) / RFU LINC00158 (11744669_a_at) / Fold change /veh LINC00158 (11744669_a_at) / RFU DUSP10 (11751237_a_at) / Fold change /veh DUSP10 (11751237_a_at) / RFU ID3 (11757404_x_at) / Fold change /veh ID3 (11757404_x_at) / RFU PLEKHG5 (11737974_s_at) / Fold change /veh PLEKHG5 (11737974_s_at) / RFU LRRC4B (11730491_at) / Fold change /veh LRRC4B (11730491_at) / RFU GIMAP4 (11747438_a_at) / Fold change /veh GIMAP4 (11747438_a_at) / RFU KRT8 (11758183_x_at) / Fold change /veh KRT8 (11758183_x_at) / RFU CNN1 (11734310_a_at) / Fold change /veh CNN1 (11734310_a_at) / RFU VPS37D (11726825_at) / Fold change /veh VPS37D (11726825_at) / RFU C10orf10 (11716522_x_at) / Fold change /veh C10orf10 (11716522_x_at) / RFU KIR2DL2 /// KIR2DL4 /// KIR2DL5A /// KIR2DL5B /// KIR2DS1 /// KIR2DS2 /// KIR2DS3 /// KIR2DS4 /// KIR3DL3 /// KIR3DL3 /// KIR3DS1 (11738374_at) / Fold change /veh KIR2DL2 /// KIR2DL4 /// KIR2DL5A /// KIR2DL5B /// KIR2DS1 /// KIR2DS2 /// KIR2DS3 /// KIR2DS4 /// KIR3DL3 /// KIR3DL3 /// KIR3DS1 (11738374_at) / RFU C1QL1 (11718748_at) / Fold change /veh C1QL1 (11718748_at) / RFU TMPRSS4 (11747572_a_at) / Fold change /veh TMPRSS4 (11747572_a_at) / RFU HAMP (11756126_x_at) / Fold change /veh HAMP (11756126_x_at) / RFU RNFT2 (11725882_a_at) / Fold change /veh RNFT2 (11725882_a_at) / RFU NR4A2 (11747474_a_at) / Fold change /veh NR4A2 (11747474_a_at) / RFU ABCC12 (11746883_a_at) / Fold change /veh ABCC12 (11746883_a_at) / RFU TMEM136 (11760407_x_at) / Fold change /veh TMEM136 (11760407_x_at) / RFU CLDN22 /// WWC2 (11732394_at) / Fold change /veh CLDN22 /// WWC2 (11732394_at) / RFU HLA-DPB1 (11760878_x_at) / Fold change /veh HLA-DPB1 (11760878_x_at) / RFU SPINT1 (11716480_a_at) / Fold change /veh SPINT1 (11716480_a_at) / RFU GAP43 (11754022_s_at) / Fold change /veh GAP43 (11754022_s_at) / RFU A4GNT (11735810_at) / Fold change /veh A4GNT (11735810_at) / RFU PRB3 (11715151_x_at) / Fold change /veh PRB3 (11715151_x_at) / RFU TUBB4B (11761932_at) / Fold change /veh TUBB4B (11761932_at) / RFU CAPN14 (11732068_a_at) / Fold change /veh CAPN14 (11732068_a_at) / RFU TMCC2 (11721928_a_at) / Fold change /veh TMCC2 (11721928_a_at) / RFU IRGQ (11745062_a_at) / Fold change /veh IRGQ (11745062_a_at) / RFU FAM174B (11720279_a_at) / Fold change /veh FAM174B (11720279_a_at) / RFU TMPRSS4 (11748680_a_at) / Fold change /veh TMPRSS4 (11748680_a_at) / RFU FAM212B (11763350_a_at) / Fold change /veh FAM212B (11763350_a_at) / RFU PLEKHG5 (11743358_a_at) / Fold change /veh PLEKHG5 (11743358_a_at) / RFU ZSCAN30 (11745921_a_at) / Fold change /veh ZSCAN30 (11745921_a_at) / RFU CMKLR1 (11741424_a_at) / Fold change /veh CMKLR1 (11741424_a_at) / RFU LOC101060620 /// MAPK8IP1 (11723275_at) / Fold change /veh LOC101060620 /// MAPK8IP1 (11723275_at) / RFU SPTSSB (11747773_x_at) / Fold change /veh SPTSSB (11747773_x_at) / RFU PRSS12 (11739890_at) / Fold change /veh PRSS12 (11739890_at) / RFU BIN1 (11741810_x_at) / Fold change /veh BIN1 (11741810_x_at) / RFU WNT11 (11732464_a_at) / Fold change /veh WNT11 (11732464_a_at) / RFU C10orf10 (11716521_a_at) / Fold change /veh C10orf10 (11716521_a_at) / RFU C5orf56 (11738089_at) / Fold change /veh C5orf56 (11738089_at) / RFU CYB561 (11721691_x_at) / Fold change /veh CYB561 (11721691_x_at) / RFU ANKRD19P (11752326_a_at) / Fold change /veh ANKRD19P (11752326_a_at) / RFU OR2T12 /// OR2T33 /// OR2T8 (11738714_s_at) / Fold change /veh OR2T12 /// OR2T33 /// OR2T8 (11738714_s_at) / RFU VCAN (11748164_a_at) / Fold change /veh VCAN (11748164_a_at) / RFU JSRP1 (11732532_at) / Fold change /veh JSRP1 (11732532_at) / RFU KRTAP10-11 (11738290_x_at) / Fold change /veh KRTAP10-11 (11738290_x_at) / RFU MYO3A (11730013_a_at) / Fold change /veh MYO3A (11730013_a_at) / RFU EBF3 (11725865_a_at) / Fold change /veh EBF3 (11725865_a_at) / RFU CAMK2N1 (11719241_x_at) / Fold change /veh CAMK2N1 (11719241_x_at) / RFU C5orf56 (11738088_a_at) / Fold change /veh C5orf56 (11738088_a_at) / RFU OLFML3 (11715873_a_at) / Fold change /veh OLFML3 (11715873_a_at) / RFU LOC100653217 /// NTM (11731650_a_at) / Fold change /veh LOC100653217 /// NTM (11731650_a_at) / RFU MAPK11 (11762145_a_at) / Fold change /veh MAPK11 (11762145_a_at) / RFU FIZ1 (11724087_x_at) / Fold change /veh FIZ1 (11724087_x_at) / RFU OASL (11726364_x_at) / Fold change /veh OASL (11726364_x_at) / RFU SOX15 (11748057_x_at) / Fold change /veh SOX15 (11748057_x_at) / RFU CD79A (11719716_a_at) / Fold change /veh CD79A (11719716_a_at) / RFU HIST1H1D (11736915_at) / Fold change /veh HIST1H1D (11736915_at) / RFU CASKIN2 (11723855_a_at) / Fold change /veh CASKIN2 (11723855_a_at) / RFU LOC730098 (11760151_x_at) / Fold change /veh LOC730098 (11760151_x_at) / RFU OR4N2 (11742367_at) / Fold change /veh OR4N2 (11742367_at) / RFU PRRT2 (11749266_a_at) / Fold change /veh PRRT2 (11749266_a_at) / RFU SNX32 (11753110_a_at) / Fold change /veh SNX32 (11753110_a_at) / RFU CDHR5 (11726645_a_at) / Fold change /veh CDHR5 (11726645_a_at) / RFU RCAN1 (11760418_a_at) / Fold change /veh RCAN1 (11760418_a_at) / RFU FAM167A (11723789_a_at) / Fold change /veh FAM167A (11723789_a_at) / RFU FAM26E (11764081_at) / Fold change /veh FAM26E (11764081_at) / RFU ISYNA1 (11749810_s_at) / Fold change /veh ISYNA1 (11749810_s_at) / RFU ACY1 (11761880_at) / Fold change /veh ACY1 (11761880_at) / RFU 11764098_at / Fold change /veh 11764098_at / RFU SAMD14 (11745864_x_at) / Fold change /veh SAMD14 (11745864_x_at) / RFU NPB (11741838_a_at) / Fold change /veh NPB (11741838_a_at) / RFU TMPRSS6 (11731388_a_at) / Fold change /veh TMPRSS6 (11731388_a_at) / RFU KRTAP10-2 (11738614_at) / Fold change /veh KRTAP10-2 (11738614_at) / RFU ARHGAP8 /// PRR5-ARHGAP8 (11727945_x_at) / Fold change /veh ARHGAP8 /// PRR5-ARHGAP8 (11727945_x_at) / RFU KRTAP5-7 /// NADSYN1 (11734609_at) / Fold change /veh KRTAP5-7 /// NADSYN1 (11734609_at) / RFU RASL12 (11751679_a_at) / Fold change /veh RASL12 (11751679_a_at) / RFU CDKN2B (11736163_a_at) / Fold change /veh CDKN2B (11736163_a_at) / RFU PRF1 (11729649_at) / Fold change /veh PRF1 (11729649_at) / RFU, ZNF638 /// ZNF638-IT1 / Fold change vs veh, ZNF638 /// ZNF638-IT1 / RFU, PANK3 / Fold change vs veh, PANK3 / RFU, SH3YL1 / Fold change vs veh, SH3YL1 / RFU, ZEB2 / Fold change vs veh, ZEB2 / RFU, NRIP1 / Fold change vs veh, NRIP1 / RFU, PTTG1IP / Fold change vs veh, PTTG1IP / RFU, CAPN2 / Fold change vs veh, CAPN2 / RFU, MED14 / Fold change vs veh, MED14 / RFU, SNORA58 / Fold change vs veh, SNORA58 / RFU, C1orf63 / Fold change vs veh, C1orf63 / RFU, LRRFIP1 / Fold change vs veh, LRRFIP1 / RFU, NDUFAF7 / Fold change vs veh, NDUFAF7 / RFU, SLC12A2 / Fold change vs veh, SLC12A2 / RFU, IBTK / Fold change vs veh, IBTK / RFU, ESF1 / Fold change vs veh, ESF1 / Fold change vs veh, TMEM50B / RFU, TAOK1 / Fold change vs veh, TAOK1 / RFU, ACBD3 / Fold change vs veh, ACBD3 / RFU, TMA16 / Fold change vs veh, TMA16 / RFU, RWDD3 / Fold change vs veh, RWDD3 / RFU, BCAT1 / Fold change vs veh, BCAT1 / RFU, EDEM3 / Fold change vs veh, EDEM3 / RFU, TMEM33 / Fold change vs veh, TMEM33 / RFU, WDR75 / Fold change vs veh, WDR75 / RFU, AHCTF1 / Fold change vs veh, AHCTF1 / RFU, TFRC / Fold change vs veh, TFRC / RFU, ZDHHC17 / Fold change vs veh, ZDHHC17 / RFU, NOM1 / Fold change vs veh, NOM1 / RFU, ARL8B / Fold change vs veh, ARL8B / RFU, ZBTB11 / Fold change vs veh, ZBTB11 / RFU, TAMM41 / Fold change vs veh, TAMM41 / RFU, KIAA1704 /// LOC100996395 / Fold change vs veh, KIAA1704 /// LOC100996395 / RFU, ING1 / Fold change vs veh, ING1 / RFU, TRMT61B / Fold change vs veh, TRMT61B / RFU, FUBP3 / Fold change vs veh, FUBP3 / RFU, TP53 / Fold change vs veh, TP53 / RFU, TNKS2 / Fold change vs veh, TNKS2 / RFU, ZFP14 / Fold change vs veh, ZFP14 / RFU, ACTR2 / Fold change vs veh, ACTR2 / RFU, PPP3R1 / Fold change vs veh, PPP3R1 / RFU, PIK3R1 / Fold change vs veh, PIK3R1 / RFU, HNRNPA1 / Fold change vs veh, HNRNPA1 / RFU, RNF170 / Fold change vs veh, RNF170 / RFU, ZNF28 / Fold change vs veh, ZNF28 / RFU, RNGTT / Fold change vs veh, RNGTT / RFU, OGT / Fold change vs veh, OGT / RFU, BRD1 / Fold change vs veh, BRD1 / RFU, MARS / Fold change vs veh, MARS / RFU, ZNF655 / Fold change vs veh, ZNF655 / RFU, FAHD1 / Fold change vs veh, FAHD1 / RFU, BDP1 / Fold change vs veh, BDP1 / RFU, LRRCC1 / Fold change vs veh, LRRCC1 / RFU, ARID1A / Fold change vs veh, ARID1A / RFU, ZNF146 / Fold change vs veh, ZNF146 / RFU, ZNF330 / Fold change vs veh, ZNF330 / RFU, GPN3 / Fold change vs veh, GPN3 / RFU, C9orf123 / Fold change vs veh, C9orf123 / RFU, N4BP2L2 / Fold change vs veh, N4BP2L2 / RFU, ARFIP1 / Fold change vs veh, ARFIP1 / RFU, FAM179B / Fold change vs veh, FAM179B / RFU, BCL10 / Fold change vs veh, BCL10 / RFU, UHRF1BP1L / Fold change vs veh, UHRF1BP1L / RFU, BET1 / Fold change vs veh, BET1 / RFU, CNOT2 / Fold change vs veh, CNOT2 / RFU, ZNF268 / Fold change vs veh, ZNF268 / Fold change vs veh, ZNF507 / RFU, DGCR2 / Fold change vs veh, DGCR2 / RFU, WDSUB1 / Fold change vs veh, WDSUB1 / Fold change vs veh, HSP90B1 /// MIR3652 / RFU, ADSS / Fold change vs veh, ADSS / RFU, GK / Fold change vs veh, GK / RFU, ZNF148 / Fold change vs veh, ZNF148 / RFU, TAF9 / Fold change vs veh, TAF9 / RFU, SLC1A5 / Fold change vs veh, SLC1A5 / RFU, SLMO2 / Fold change vs veh, SLMO2 / RFU, ABCC4 / Fold change vs veh, ABCC4 / RFU, LOC101060439 /// RAP1B / Fold change vs veh, LOC101060439 /// RAP1B / RFU, RFX7 / Fold change vs veh, RFX7 / RFU, GTPBP10 / Fold change vs veh, GTPBP10 / RFU, CNEP1R1 / Fold change vs veh, CNEP1R1 / RFU, BIVM-ERCC5 /// ERCC5 / Fold change vs veh, BIVM-ERCC5 /// ERCC5 / RFU, ILF3 / Fold change vs veh, ILF3 / RFU 11762660_at / Fold change /veh 11762660_at / RFU VCAN (11757783_s_at) / Fold change /veh VCAN (11757783_s_at) / RFU DDX43 (11728927_at) / Fold change /veh DDX43 (11728927_at) / RFU KRT8 (11758188_x_at) / Fold change /veh KRT8 (11758188_x_at) / RFU NKD1 (11759106_at) / Fold change /veh NKD1 (11759106_at) / RFU SRD5A1 (11742802_a_at) / Fold change /veh SRD5A1 (11742802_a_at) / RFU TPSAB1 /// TPSB2 (11721975_s_at) / Fold change /veh TPSAB1 /// TPSB2 (11721975_s_at) / RFU GSTM3 (11746129_a_at) / Fold change /veh GSTM3 (11746129_a_at) / RFU IL23R (11737362_x_at) / Fold change /veh IL23R (11737362_x_at) / RFU TMEM51 (11727254_a_at) / Fold change /veh TMEM51 (11727254_a_at) / RFU PIWIL2 (11732686_x_at) / Fold change /veh PIWIL2 (11732686_x_at) / RFU ORM1 (11744905_x_at) / Fold change /veh ORM1 (11744905_x_at) / RFU CCDC152 (11743942_at) / Fold change /veh CCDC152 (11743942_at) / RFU ECM1 (11717891_a_at) / Fold change /veh ECM1 (11717891_a_at) / RFU IL23R (11748794_a_at) / Fold change /veh IL23R (11748794_a_at) / RFU TNFAIP8L3 (11732012_x_at) / Fold change /veh TNFAIP8L3 (11732012_x_at) / RFU MBOAT4 (11741988_at) / Fold change /veh MBOAT4 (11741988_at) / RFU 11764193_at / Fold change /veh 11764193_at / RFU TMEM53 (11763286_at) / Fold change /veh TMEM53 (11763286_at) / RFU MAGEB2 (11727129_at) / Fold change /veh MAGEB2 (11727129_at) / RFU TMEM200A (11744735_a_at) / Fold change /veh TMEM200A (11744735_a_at) / RFU CCDC152 (11751479_a_at) / Fold change /veh CCDC152 (11751479_a_at) / RFU FAM211A (11726209_a_at) / Fold change /veh FAM211A (11726209_a_at) / RFU RGS16 (11746705_a_at) / Fold change /veh RGS16 (11746705_a_at) / RFU VCAN (11755009_s_at) / Fold change /veh VCAN (11755009_s_at) / RFU RHOB (11743442_s_at) / Fold change /veh RHOB (11743442_s_at) / RFU RGS16 (11720943_a_at) / Fold change /veh RGS16 (11720943_a_at) / RFU RGS16 (11720944_at) / Fold change /veh RGS16 (11720944_at) / RFU, VPS4B / Fold change vs veh, VPS4B / RFU, CREB1 / Fold change vs veh, CREB1 / RFU, DNAJC13 / Fold change vs veh, DNAJC13 / RFU, GNAQ / Fold change vs veh, GNAQ / RFU, CDK5R1 / Fold change vs veh, CDK5R1 / RFU, ZRANB3 / Fold change vs veh, ZRANB3 / RFU, CUL4A / Fold change vs veh, CUL4A / RFU, CCNY / Fold change vs veh, CCNY / RFU, UFL1 / Fold change vs veh, UFL1 / RFU, COG3 / Fold change vs veh, COG3 / RFU, DIAPH2 / Fold change vs veh, DIAPH2 / RFU, SKA2 / Fold change vs veh, SKA2 / RFU, AFF3 / Fold change vs veh, AFF3 / RFU, LMF1 / Fold change vs veh, LMF1 / RFU, IPO11 / Fold change vs veh, IPO11 / RFU, DFFB / Fold change vs veh, DFFB / RFU, FOXP1 / Fold change vs veh, FOXP1 / RFU, CARD8 / Fold change vs veh, CARD8 / RFU, STRN3 / Fold change vs veh, STRN3 / RFU, ADK / Fold change vs veh, ADK / RFU, RASSF2 / Fold change vs veh, RASSF2 / RFU, WIPF1 / Fold change vs veh, WIPF1 / RFU, LARP1B / Fold change vs veh, LARP1B / RFU, RASA1 / Fold change vs veh, RASA1 / RFU, RB1 / Fold change vs veh, RB1 / RFU, PPFIA1 / Fold change vs veh, PPFIA1 / RFU, MAT2A / Fold change vs veh, MAT2A / RFU, CCT5 / Fold change vs veh, CCT5 / RFU, WDR92 / Fold change vs veh, WDR92 / RFU, CUX1 / Fold change vs veh, CUX1 / RFU, TTC7A / Fold change vs veh, TTC7A / RFU, TMEM135 / Fold change vs veh, TMEM135 / RFU, DEPTOR / Fold change vs veh, DEPTOR / RFU, CPM / Fold change vs veh, CPM / RFU, DNAJB6 / Fold change vs veh, DNAJB6 / RFU, CACNA2D3 / Fold change vs veh, CACNA2D3 / RFU, DTX4 / Fold change vs veh, DTX4 / RFU, TFCP2 / Fold change vs veh, TFCP2 / RFU, GMCL1 /// GMCL1P1 / Fold change vs veh, GMCL1 /// GMCL1P1 / RFU, AEBP2 / Fold change vs veh, AEBP2 / RFU, SNHG1 /// SNORD22 /// SNORD25 /// SNORD26 /// SNORD27 /// SNORD28 /// SNORD29 /// SNORD31 / Fold change vs veh, SNHG1 /// SNORD22 /// SNORD25 /// SNORD26 /// SNORD27 /// SNORD28 /// SNORD29 /// SNORD31 / Fold change (Aza/veh), C12orf56 (ProbeSet 11735607_a_at) / Fold change (ACY-1035/veh), C12orf56 (ProbeSet 11735607_a_at) / Fold change (Aza/veh), FGFR1OP (ProbeSet 11751329_s_at) / Fold change (ACY-1035/veh), FGFR1OP (ProbeSet 11751329_s_at) / Fold change (Aza/veh), VPS36 (ProbeSet 11739960_a_at) / Fold change (ACY-1035/veh), VPS36 (ProbeSet 11739960_a_at) / RFU SYPL1 (11715823_x_at) / Fold change /veh SYPL1 (11715823_x_at) / RFU IGFBP7 (11715501_s_at) / Fold change /veh IGFBP7 (11715501_s_at) / RFU REEP3 (11722064_at) / Fold change /veh REEP3 (11722064_at) / RFU IGLL1 (11728026_x_at) / Fold change /veh IGLL1 (11728026_x_at): dose or concentration left out as unconfirmed.

For `Nc1ccc(-c2cccs2)cc1NC(=O)c1ccc2c(c1)cc(C1CC1)n2CCN1CCOCC1` [ACY-1035], the “Fold change /veh KRTAP10-11 (11738290_x_at)” value was 1.00.
